Reference: patent US20260022142A1, “MACROCYCLIC IMMUNOMODULATORS” (Bristol-Myers Squibb Company, priority 2022, published 2026)
pIC50: −log10 of the molar value. Bridge positions count the residues as written; N and C are the ends. Square brackets hold non-standard residues; d marks the D form. Peptide text beside a SMILES is read from it. * marks the point of attachment. ξ: configuration not given here. Phe(3-CF3) = N[C@@H](Cc1cccc(C(F)(F)F)c1)C(=O)O; Bip = N[C@@H](Cc1ccc(-c2ccccc2)cc1)C(=O)O; NH(CH2)14COOH = O=C(O)CCCCCCCCCCCCCCN*; Phe(3-Me) = Cc1cccc(C[C@H](N)C(=O)O)c1; Phe(4-F) = N[C@@H](Cc1ccc(F)cc1)C(=O)O; NH(CH2)12COOH = O=C(O)CCCCCCCCCCCCN*; Val(3-OH) = CC(C)(O)[C@H](N)C(=O)O; Cha = N[C@@H](CC1CCCCC1)C(=O)O; Thr(3ξ) = CC(O)[C@H](N)C(=O)O; Carboxymethyl = O=C(O)C*; Orn = NCCC[C@H](N)C(=O)O; Aun = NCCCCCCCCCCC(=O)O; Dab = NCC[C@H](N)C(=O)O; AEEA = NCCOCCOCC(=O)O

Each molecule was assayed against T1, PD-1/PD-L1 interaction (PE-labeled human PD-L1-Ig binding to Jurkat cell line over-expressing human PD-1) (Homo sapiens, UniProt Q15116) (assay: Jurkat-PD-1 Cell Binding High-Content Screening Assay (CBA)). Settings: Jurkat cell line over-expressing human PD-1; PE-labeled PD-L1-Ig 20 nM final; read-out: Jurkat hPD1-PDL1 IC50.
T1 construct: expressed in transfected cells; host or cells: Jurkat
T1 sequence (Q15116 25-288): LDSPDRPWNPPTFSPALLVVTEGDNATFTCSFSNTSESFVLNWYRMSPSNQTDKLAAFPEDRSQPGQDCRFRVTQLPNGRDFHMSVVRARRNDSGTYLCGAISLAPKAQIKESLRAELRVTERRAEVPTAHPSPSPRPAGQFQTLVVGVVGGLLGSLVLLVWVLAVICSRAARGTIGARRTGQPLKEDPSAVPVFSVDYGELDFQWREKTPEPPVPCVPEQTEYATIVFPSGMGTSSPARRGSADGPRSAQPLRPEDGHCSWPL
Type: cell-based
Procedure, shortened: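 Read-out is high-content imaging of cell-bound phycoerythrin-tagged PD-L1-Ig on fixed, Hoechst-counterstained Jurkat cells that over-express human PD-1. Compound exposure lasts 2 h at 37° C before the labeled ligand (20 nM final) is added for a further hour.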
`Cc1cccc(C[C@@H]2NC(=O)[C@H](CC(=O)O)NC(=O)[C@H](Cc3ccc(OCC(=O)O)cc3)NC(=O)[C@H](CCN)NC(=O)CSC[C@@H](C(=O)N[C@@H](CCN)C(=O)NCCOCCOCC(=O)NCCOCCOCC(=O)NCCCCCCCCCCCCCCC(=O)O)NC(=O)[C@H](CO)NC(=O)[C@H](C(C)(C)O)NC(=O)[C@H](CC3CCCCC3)NC(=O)[C@H](CCN)NC(=O)[C@@H](CC(C)C)NC(=O)[C@H](CCCN)NC(=O)[C@H](Cc3ccc(OCC(=O)O)cc3)NC(=O)[C@H](Cc3ccc(-c4ccccc4)cc3)NC(=O)[C@H](Cc3ccc(OCC(=O)O)cc3)NC2=O)c1` [Compound 3815] ({CH2CO}-[Dab]Y(Carboxymethyl)D[Phe(3-Me)]Y(Carboxymethyl)[Bip]Y(Carboxymethyl)[Orn][dL][Dab][Cha][Val(3-OH)]SC[Dab][AEEA][AEEA]-{NH(CH2)14COOH}; thioether N-14) was tested, and the pIC50 was 7.66. Molecule `COC[C@H](NC(=O)COCCOCCNC(=O)[C@H](CCN)NC(=O)[C@@H]1CSCC(=O)N[C@@H](CCN)C(=O)N[C@@H](Cc2ccc(OCC(=O)O)cc2)C(=O)N[C@@H](CC(=O)O)C(=O)N[C@@H](Cc2cccc(C)c2)C(=O)N[C@@H](Cc2ccc(OCC(=O)O)cc2)C(=O)N[C@@H](Cc2ccc(-c3ccccc3)cc2)C(=O)N[C@@H](Cc2ccc(OCC(=O)O)cc2)C(=O)N[C@@H](CCCN)C(=O)N[C@H](CC(C)C)C(=O)N[C@@H](CCN)C(=O)N[C@@H](CC2CCCCC2)C(=O)N[C@@H](C(C)(C)O)C(=O)N[C@@H](CO)C(=O)N1)C(=O)NCCCCCCCCCCCCC(=O)O` [Compound 3816] ({CH2CO}-[Dab]Y(Carboxymethyl)D[Phe(3-Me)]Y(Carboxymethyl)[Bip]Y(Carboxymethyl)[Orn][dL][Dab][Cha][Val(3-OH)]SC[Dab][AEEA]S(Me)-{NH(CH2)12COOH}; thioether N-14) has a pIC50 of 7.59. With `Cc1cccc(C[C@@H]2NC(=O)[C@H](CC(=O)O)NC(=O)[C@H](Cc3ccc(OCC(=O)O)cc3)NC(=O)[C@H](Cc3ccc(F)cc3)NC(=O)CSC[C@@H](C(=O)N[C@@H](CCN)C(=O)NCCOCCOCC(=O)NCCOCCOCC(=O)NCCCCCCCCCCCCC(=O)O)NC(=O)[C@H](CO)NC(=O)[C@H](C(C)(C)O)NC(=O)[C@H](CC3CCCCC3)NC(=O)[C@H](Cc3cnc[nH]3)NC(=O)[C@@H](CC(C)C)NC(=O)[C@H](CCCN)NC(=O)[C@H](Cc3ccc(OCC(=O)O)cc3)NC(=O)[C@H](Cc3ccc(-c4ccccc4)cc3)NC(=O)[C@H](Cc3ccc(OCC(=O)O)cc3)NC2=O)c1` [Compound 3817] ({CH2CO}-[Phe(4-F)]Y(Carboxymethyl)D[Phe(3-Me)]Y(Carboxymethyl)[Bip]Y(Carboxymethyl)[Orn][dL]H[Cha][Val(3-OH)]SC[Dab][AEEA][AEEA]-{NH(CH2)12COOH}; thioether N-14) the pIC50 was 7.24. `CC(C)C[C@H]1NC(=O)[C@H](CCCN)NC(=O)[C@H](Cc2ccc(OCC(=O)O)cc2)NC(=O)[C@H](Cc2ccc(-c3ccccc3)cc2)NC(=O)[C@H](Cc2ccc(OCC(=O)O)cc2)NC(=O)[C@H](Cc2cccc(C(F)(F)F)c2)NC(=O)[C@H](CC(=O)O)NC(=O)[C@H](Cc2ccc(OCC(=O)O)cc2)NC(=O)[C@H](C(C)O)NC(=O)CSC[C@@H](C(=O)N[C@@H](CCN)C(=O)NCCCCCCCCCCC(=O)O)NC(=O)[C@H](CO)NC(=O)[C@H](C(C)(C)O)NC(=O)[C@H](CC2CCCCC2)NC(=O)[C@H](CCN)NC1=O` (stereo partly drawn) [Compound 3818] ({CH2CO}-[Thr(3ξ)]Y(Carboxymethyl)D[Phe(3-CF3)]Y(Carboxymethyl)[Bip]Y(Carboxymethyl)[Orn][dL][Dab][Cha][Val(3-OH)]SC[Dab][Aun]-OH; thioether N-14) gave a pIC50 of 8.41.
